The target in this test is cardiac troponin C (cTnC), regulatory N-domain (cNTnC) (Homo sapiens, UniProt P19429+P63316). Briefly: 1H, […]-HSQC NMR titration. It counts as binding.

Here are results for one compound from publication PMC2975748 (Journal of molecular and cellular cardiology, 2010).

Sequence of cardiac troponin C (cTnC), regulatory N-domain (cNTnC) (P63316 1-89): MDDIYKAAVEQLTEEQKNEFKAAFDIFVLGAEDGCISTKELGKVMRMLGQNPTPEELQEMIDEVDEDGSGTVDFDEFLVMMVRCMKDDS
Sequence of cardiac troponin C (cTnC), regulatory N-domain (cNTnC) (P19429 145-164): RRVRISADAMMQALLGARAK

In general, Kd refers to the free concentration of one partner at which half of the binding sites on the other are occupied at equilibrium, for simple one-to-one binding. High values mean a looser complex, low ones a tighter complex. `O=C(O)Cc1ccc(-c2ccc(F)cc2F)cc1` [dfbp, 2’ ,4’-difluoro(1,1’-biphenyl)-4-yl acetic acid] showed a Kd of 2.82 ± 0.48 mM.
